Data as given in patent publication US8217000B2, “Method for elevating prolactin in mammals” (Cara Therapeutics, Inc., priority 2006, dated 2012).
Counter-ions that a name gives are not always drawn. Like-named read-outs stand apart in the source and are kept apart here. Non-standard residues stand in square brackets, D forms with d. Residues, ends and D or L forms follow the SMILES beside them. *: point of attachment. NH(4-picolyl) = c1cc(CN*)ccn1; dNle = CCCC[C@@H](N)C(=O)O

Experiments:
[1] = Safety and tolerability of ascending single IV doses in human subjects; format: in vivo
Text: In each group, subjects received CR665 or placebo.
The condition of each subject was monitored throughout the study.
Subjects were also encouraged to spontaneously report adverse events occurring at any other time during the study. Any adverse events and remedial action required were to be recorded for each subject. The nature, time of onset, duration and severity were documented, together with the Project Physician's opinion of the relationship to drug administration.
The condition of the dosing cannula site for each subject was monitored for erythema, pruritus and swelling at the following times: Pre dose, 0.5, 1, 2 and 24 hours after the start of the infusion. Subjects were also encouraged to spontaneously report adverse events relating to the infusion site at any other time during the study. Any adverse events and observations relating to the infusion site and remedial action required were to be recorded for each subject. The nature, time of onset, duration, and severity were to be documented, together with the Project Physician's opinion of the relationship to drug administration.
Supine and standing blood pressure, supine pulse rate and oral body temperature were measured in duplicate at the following times: Day 1; Pre dose, 15 minutes (Part B only), 30 minutes, 55 minutes, 1.5, 2, 2.5, 3, 4, 8, 12, 24 and 48 hours after the start of the infusion (up to 24 hours only for Groups A1 to A4); and at Follow up visit. Supine vital signs only were measured during the infusion period. Pre dose blood pressure and pulse rate were measured in triplicate at approximately 2 minute intervals. The median value was used as the baseline value in the data analysis. All subsequent measurements were performed singly, but repeated in duplicate if outside the relevant clinical reference ranges. If repeated, the median of the three values were used in the data analysis. Blood pressure and pulse rate were measured using automated Critikon Dinamap™ PRO 400 monitors. Subjects were required to be supine for at least 5 minutes before blood pressure and pulse rate measurements. Standing blood pressure and pulse rate were then measured singly after the subject had been sitting for approximately 1 minute and then standing for approximately 2 minutes. Oral body temperature was measured singly using an Omron digital thermometer. To assess drug effects on cardiovascular function, a 12 lead resting ECG with a 10 second rhythm strip was recorded on a Marquette MAC5000 ECG machine at the following times, after the subject has been supine for at least 5 minutes: Day 1; Pre dose, 50 minutes, 2, 4, 8, 24 and 48 hours after the start of the infusion (up to 24 hours only for Groups A1 to A4); and at the follow up visit. The ECG machine computed the PR, QT and QTc intervals, QRS duration, and heart rate. The QT interval was corrected for heart rate (QTc) using Bazett's formula. For continuous ECG measurements, continuous cardiac Holter monitoring of each subject, using Reynolds Tracker II Holter monitors, was performed from 1 hour prior to until 4 hours after the start of the infusion. Blood and urine samples were collected, after at least a 6 hour fast, for clinical laboratory evaluations at the following times during the study: Pre dose and 24 hours after the start of the infusion; and at the follow up visit.
After collection of urine samples, following removal of the aliquots for drug assay and/or urinalysis, urine was pooled over the following time intervals: 24 to 0 hours and 0 to 24 hours after the start of the infusion. A 10 mL aliquot was removed from the each pooled collection for determination of urinary creatinine.
An assessment of fluid balance (made by comparison of volume of fluid consumed and volume of fluid excreted) was made over the following periods: 24 to 0 hours and 0 to 24 hours after the start of the infusion. During these periods, the volume of fluid consumed and the volume of urine excreted was recorded. […]

[2] = Urinary excretion of CR665 after single IV infusion in human subjects; format: in vivo; conditions: for CL renal / dose excreted: human; for CL renal: urine and plasma, read-out: CLR 0-24 h; for dose excreted / Ae0-24 h: urine; for dose excreted: iv
Procedure: The lower limit of quantification was 1 ng/mL.
Urine was collected into standard weight polyethylene containers over the following time intervals: Pre dose (−24 to 0), 0 to 4, 4 to 8, 8 to 12, 12 to 24 and 24 to 48 hours after the start of the infusion. During each collection period, the containers were stored in a refrigerator at 2 to 8° C. The weight (g) of each collection was recorded prior to removal of two sub samples (each approximately 4 mL) into suitably labeled polypropylene containers, which were stored within 2 hours of collection, at approximately −20° C. Additional aliquots (1×100 mL per collection period) were stored for possible future analyses. Any remaining urine from post dose collection intervals was pooled with the rest of the urine collected during the 0 to 24 hour collection period, for analysis of creatinine clearance. A nominal value for specific gravity of 1.018 was used to calculate urine volume.

## CCCC[C@@H](NC(=O)[C@@H](Cc1ccccc1)NC(=O)[C@H](N)Cc1ccccc1)C(=O)N[C@H](CCCNC(=N)N)C(=O)NCc1ccncc1 [CR665, D-phenylalanyl-D-phenylalanyl-D-norleucyl-N-(4-pyridinylmethyl)-D-argininamide, acetate salt] (H-[dF][dF][dNle][dR]-{NH(4-picolyl)})
[1]; 0 to 24 hour after start of infusion
  Fluid balance (urine excreted-fluid consumed): no apparent treatment or dose related trends
[1]; Parts A and B
  12-lead ECG evaluations: no treatment related trends, significant clinical changes, or abnormalities in the morphology of the 12 lead ECG
  Creatinine clearance estimated from serum creatinine: no clinically important changes
  Supine and standing blood pressure, pulse rate, oral body temperature: no treatment or dose related trends
[1]; all 54 subjects, all dose levels
  Severe or serious adverse events: no severe or serious adverse events
[1]; each dose level, male and female subjects
  QTc interval (Bazett's and Friedericia's corrected): no evidence of prolongation of QTc interval
[1]; even at the highest dose levels
  CNS symptoms (hallucinations or dysphoria): no signs of the more typical CNS symptoms
[1]; first 4 hours after start of infusion, each dose level, male and female, Parts A and B
  Volume of urine excreted compared to placebo: increase
[1]; human, in vivo
  Clinical laboratory evaluations (serum biochemistry, hematology, urinalysis): no treatment related trends or significant clinical findings
  Physical examination: no treatment related findings
[2]; female, females, 0.06 mg/kg, 5-minute IV infusion, geometric mean
  CL renal: 20.9 mL/min
[2]; female, females, 0.24 mg/kg, 1 hour IV infusion, geometric mean
  CL renal: 16.8 mL/min
[2]; female, 0.06 mg/kg, females, 0.06 mg/kg, 5-minute IV infusion, geometric mean, read-out: fe0-24 h
  dose excreted: 3.83%
[2]; female, 0.06 mg/kg, females, 5-minute infusion, read-out: Fraction of unchanged drug excreted in the urine
  dose excreted: 3.8%
[2]; female, 0.06 mg/kg, females, 5-minute infusion, read-out: fe0-24 h, geometric least squares mean
  dose excreted: 3.83%
[2]; female, 0.24 mg/kg, females, 0.24 mg/kg, 1 hour IV infusion, geometric mean, read-out: fe0-24 h
  dose excreted: 3.02%
[2]; female, 0.24 mg/kg, females, 1-hour infusion, read-out: fe0-24 h, geometric least squares mean
  dose excreted: 2.7%
[2]; females
  fe0-24 h, ratio of geometric least squares means 5-minute:1-hour: 1.42
[2]; females, 0.06 mg/kg, 5-minute IV infusion, geometric mean
  Ae0-24 h: 153 µg
[2]; females, 0.24 mg/kg, 1 hour IV infusion, geometric mean
  Ae0-24 h: 446 µg
[2]; male, males, 0.03 mg/kg, 5-minute IV infusion, geometric mean
  CL renal: 17.1 mL/min
[2]; male, males, 0.06 mg/kg, 5-minute IV infusion, geometric mean
  CL renal: 18.4 mL/min
[2]; male, males, 0.09 mg/kg, 5-minute IV infusion, geometric mean
  CL renal: 20.5 mL/min
[2]; male, males, 0.24 mg/kg, 1 hour IV infusion, geometric mean
  CL renal: 22 mL/min
[2]; male, 0.03 mg/kg, males, 0.03 mg/kg, 5-minute IV infusion, geometric mean, read-out: fe0-24 h
  dose excreted: 3.6%
[2]; male, 0.06 mg/kg, males, 0.06 mg/kg, 5-minute IV infusion, geometric mean, read-out: fe0-24 h
  dose excreted: 3.33%
[2]; male, 0.09 mg/kg, males, 0.09 mg/kg, 5-minute IV infusion, geometric mean, read-out: fe0-24 h
  dose excreted: 3.56%
[2]; male, 0.24 mg/kg, males, 0.24 mg/kg, 1 hour IV infusion, geometric mean, read-out: fe0-24 h
  dose excreted: 3.5%
[2]; male, males, 1-hour infusion, Parts A & B, read-out: fe0-24 h, geometric least squares mean
  dose excreted: 3.46%
[2]; male, males, 5-minute infusion, Parts A & B, read-out: fe0-24 h, geometric least squares mean
  dose excreted: 3.48%
[2]; male, males, all dose levels, 5-minute infusion, up to 24 hours post-dose, read-out: Fraction of the dose excreted in the urine as unchanged drug
  dose excreted: ~3.5%
[2]; males
  fe0-24 h, ratio of geometric least squares means 5-minute:1-hour: 1.01
[2]; males, 0.03 mg/kg, 5-minute IV infusion, geometric mean
  Ae0-24 h: 70.0 µg
[2]; males, 0.06 mg/kg, 5-minute IV infusion, geometric mean
  Ae0-24 h: 157 µg
[2]; males, 0.09 mg/kg, 5-minute IV infusion, geometric mean
  Ae0-24 h: 262 µg
[2]; males, 0.24 mg/kg, 1 hour IV infusion, geometric mean
  Ae0-24 h: 631 µg
